{
  "source": "paper PMC10036820",
  "about": "“In vivo evaluation of integrin αvβ6-targeting peptide in NSCLC and brain metastasis” (Frontiers in Oncology, 2023)",
  "origin": "cited, not measured here",
  "key": {"integrin αvβ6": {"test_system": "integrin αvβ6", "parameters": "method as in PMID 29674419", "settings": "comparison in words; ref [16]"}, "[1]": {"test_system": "HNSCC primary tumor and lymph node metastases", "parameters": "method as in PMID 29674419", "settings": "PET/CT, patient with HNSCC; ref [16]"}},
  "data": [
    {"sequence": "GRGDLGRL [SFLAP3, SFTI-based peptide containing latency-associated peptide (GRGDLGRL)]", "values": [
      {"measurement": "affinity to integrin αvβ6 relative to SFITGv6", "setting": "integrin αvβ6", "value": "better affinity"},
      {"measurement": "SUVmax, lymph node metastases", "setting": "[1]", "value": 4.1},
      {"measurement": "SUVmax, primary tumor", "setting": "[1]", "value": 5.1}
    ]}
  ]
}
